From patent US11565094B2, “Delivery devices” (THE METHODIST HOSPITAL SYSTEM, priority 2017, dated 2023)

Experiments:
[1] = set-up: species or system C57Bl6 mice; details: mouse, in vivo
Source text: Utilizing the percutaneous trocar delivery approach, PEEK nano-channel implants loaded with Magnevist were inserted intratumorally into the upper thigh of C57Bl6 mice with induced melanoma. The implants were visualized on T1-weighted images as an area of hypointensity corresponding to the PEEK body and surrounded by a hyperintense halo of contrast agent (FIG. 7B). Implant location could also be identified on T2-weighted images that, in addition, highlighted tumor heterogeneity (FIG. 7A).
An unexpected outcome was the implant's loaded concentration being too high for visualization, as the relaxation time was faster than the scanner could detect. This is further evidenced by the sharp onset of observable enhancement a few mm from the implant's exterior. The narrow band of this observable enhancement, beginning 2-5 mm from the implant's exterior and approximately 1 mm thick, provides evidence of rapid clearance of the contrast agent from the tumor tissue. FIG. 7C serves as an idealized graphical representation of the relationship between the normalized concentration and the visible contrast zone.

[2] = VEGF 0.5 and 5 μg/mL in PLM, subcutaneous device
Protocol: The encapsulation systems were evaluated in nude mice (Nu/Nu, female, 8-10 week old), after receiving approval by the Institutional Animal Care and Use Committee of Houston Methodist Research Institute. Surface treated and sterilized devices, loaded with platelet-lysate matrix (PLM) enriched with VEGF at two different concentrations (0.5 and 5 μg/mL), were implanted subcutaneously in the mice dorsum (n=12 per group). At 1, 2, and 4 weeks post implantation, 4 mice per group were euthanized and the graft explanted for the histological assessment of vascularization and innervation. The implant and surrounding tissues were harvested and processed for histopathology evaluation of tissue response to the implanted device. CD31 antibody (Abcam, ab28364) and a pan-axonal antibody (Cambridge Bioscience, SMI-312R-100) were used to assess vascularization and innervation, respectively.
In vivo vascularization and innervation of oxygen treated devices after subcutaneous implantation in nude mice was then investigated. […] To stimulate neovascularization and to support the islet viability and function for a period of time after transplantation, devices loaded with biological gels with different VEGF concentrations was used. […] Tissue samples were taken from the side of the device closer to the skin, representing the subcutaneous environment.

| Compound | distance from implant's exterior where observable enhancement begins [1] | thickness of band of observable enhancement [1] | number of vessels stained by CD31 versus VEGF concentration [2] |
| --- | --- | --- | --- |
| CNC[C@H](O)[C@@H](O)[C@H](O)[C@H](O)CO.CNC[C@H](O)[C@@H](O)[C@H](O)[C@H](O)CO.O=C([O-])CN(CCN(CC(=O)[O-])CC(=O)O)CCN(CC(=O)[O-])CC(=O)O.[Gd+3] [Magnevist] | 2-5 mm | approximately 1 mm |  |
| vascular endothelial growth factor [VEGF] |  |  | positive trend |
